In patent US20260132129A1 (Genesis Therapeutics, Inc., priority 2022, published 2026):

Biological target: T1, PI3Kα H1047R (T47D cells) (Homo sapiens, UniProt P42336, H1047R)
T1 construct: endogenous in cells; host or cells: T47D cells
Test: PI3Kα cellular assay: pAKT HTRF in T47D cells after EGF stimulation
Format: cell-based
Settings: for IC50: T47D cells (PI3Kα H1047R), pAKT S473 HTRF
Procedure: SKBR3 or T47D cells are seeded in DMEM containing 10% FBS at 25k cells/well into 96-well cell culture format. Cells are incubated overnight at 37° C. in a 5% CO2 incubator and the following day cell media is aspirated, adherent cells are washed 1× with room temperature PBS prior to serum-free media application. Cells are returned to 37° C. 5% CO2 incubator and incubated a further 16 hrs. Compounds are added to serum starved adherent cells with a top dose of 10,000 nM and 3× multiple dose reductions for a minimum dose of 0.5 nM diluted in DMSO. Cell/compound incubation continues for 1 hr in a 37° C., 5% CO2 incubator prior to 10 minute PIK3CA stimulation with 20 ng/ml EGF. Cells treated with 0.1% DMSO and 20 ng/mL EGF are employed as negative control, cells treated with 10 uM Alpelisib and 20 ng/mL EGF are employed as a positive control. After 10 mins, plates are removed from incubator and cells are lysed with buffer and shaking 45 minutes. […] 384 well plate is left overnight at room temperature before reading HTRF on an Envision plate reader.
ND denotes value not determined with that assay for the specified compound; • for T47D (H1047R) selectivity over SKBR3 (WT): A denotes >20-fold; B denotes 20-fold≥value>5-fold; C denotes ≤5-fold. ND denotes value not determined with that assay for the specified compound; and • for T47D pAKT lipophilic efficiency (LiPE): A denotes >4; B denotes 4≥value>2; C denotes ≤2. ND denotes value not determined with that assay for the specified compound.

[1] = 1 hr compound, 20 ng/ml EGF 10 min
[2] = selectivity T47D (H1047R) over SKBR3 (WT), pAKT HTRF
[3] = selectivity of T47D (H1047R) over SKBR3 (WT) pAKT IC50

T1 sequence (P42336 whole entry H1047R): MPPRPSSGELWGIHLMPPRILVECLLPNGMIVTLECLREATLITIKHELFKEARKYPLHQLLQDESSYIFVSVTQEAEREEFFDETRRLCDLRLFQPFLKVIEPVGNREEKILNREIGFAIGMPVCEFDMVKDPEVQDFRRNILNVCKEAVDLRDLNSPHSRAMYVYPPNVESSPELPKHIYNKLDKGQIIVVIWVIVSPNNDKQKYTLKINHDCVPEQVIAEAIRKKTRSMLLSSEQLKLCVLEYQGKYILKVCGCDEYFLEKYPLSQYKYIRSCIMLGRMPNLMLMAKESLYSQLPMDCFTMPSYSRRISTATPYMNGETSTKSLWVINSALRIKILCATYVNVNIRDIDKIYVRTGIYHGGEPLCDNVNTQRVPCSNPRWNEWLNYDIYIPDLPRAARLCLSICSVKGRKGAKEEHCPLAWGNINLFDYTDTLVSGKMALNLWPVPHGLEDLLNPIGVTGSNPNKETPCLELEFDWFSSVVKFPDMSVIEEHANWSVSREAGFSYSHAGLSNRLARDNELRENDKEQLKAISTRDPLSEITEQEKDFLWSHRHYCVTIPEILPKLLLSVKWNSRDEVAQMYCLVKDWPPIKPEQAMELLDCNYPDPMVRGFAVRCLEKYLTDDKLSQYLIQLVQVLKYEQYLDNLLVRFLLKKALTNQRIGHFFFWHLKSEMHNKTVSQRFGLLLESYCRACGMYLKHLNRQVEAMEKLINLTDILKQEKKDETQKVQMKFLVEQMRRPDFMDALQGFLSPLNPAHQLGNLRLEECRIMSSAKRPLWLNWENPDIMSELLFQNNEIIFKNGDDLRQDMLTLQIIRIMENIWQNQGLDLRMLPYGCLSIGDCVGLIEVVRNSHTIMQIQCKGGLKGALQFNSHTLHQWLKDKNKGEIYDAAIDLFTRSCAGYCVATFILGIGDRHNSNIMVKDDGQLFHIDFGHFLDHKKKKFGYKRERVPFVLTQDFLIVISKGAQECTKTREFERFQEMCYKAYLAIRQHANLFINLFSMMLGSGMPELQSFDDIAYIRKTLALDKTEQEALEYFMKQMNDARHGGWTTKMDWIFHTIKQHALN
T1 sequence (P27986 whole entry partner): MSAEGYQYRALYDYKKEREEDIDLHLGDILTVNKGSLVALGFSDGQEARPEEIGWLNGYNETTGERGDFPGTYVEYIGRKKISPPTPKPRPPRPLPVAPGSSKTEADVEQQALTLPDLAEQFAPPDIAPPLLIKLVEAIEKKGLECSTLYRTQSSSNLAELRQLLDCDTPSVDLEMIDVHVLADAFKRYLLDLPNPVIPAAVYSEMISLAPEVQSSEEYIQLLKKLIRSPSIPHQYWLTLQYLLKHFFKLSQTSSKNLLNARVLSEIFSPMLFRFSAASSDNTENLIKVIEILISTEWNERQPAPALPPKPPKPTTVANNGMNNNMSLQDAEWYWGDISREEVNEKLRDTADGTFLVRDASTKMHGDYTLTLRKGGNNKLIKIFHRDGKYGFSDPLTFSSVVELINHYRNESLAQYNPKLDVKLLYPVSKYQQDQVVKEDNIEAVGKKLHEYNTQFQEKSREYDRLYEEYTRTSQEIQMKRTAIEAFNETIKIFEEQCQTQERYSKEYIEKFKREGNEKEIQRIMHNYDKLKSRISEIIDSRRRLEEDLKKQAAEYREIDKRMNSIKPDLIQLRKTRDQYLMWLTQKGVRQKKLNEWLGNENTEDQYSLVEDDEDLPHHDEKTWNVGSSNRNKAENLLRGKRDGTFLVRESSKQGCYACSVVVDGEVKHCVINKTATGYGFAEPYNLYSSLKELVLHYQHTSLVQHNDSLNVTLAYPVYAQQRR

Structure (SMILES) | IC50 [1] | T47D pAKT S473 HTRF IC50 (H1047R): T47D (H1047R) selectivity over SKBR3 (WT) [2] | T47D pAKT S473 HTRF IC50 (H1047R): T47D (H1047R) selectivity over SKBR3 (WT) [3] | IC50 (EGF stimulation)
Cc1cc(C(C)Nc2ccccc2C(=O)O)c2nc(-c3ccncc3)cc(=O)n2c1 (single isomer, unassigned) [Compound 268] | > 2000 nM | C (C denotes ≤5-fold) |  | 
Cc1cc([C@H](C)Nc2ccccc2C(=O)O)c2nc(N3Cc4ccccc4C3)cc(=O)n2c1 (single isomer, unassigned) [Compound 393] | < 100 nM | A (A denotes >20-fold) |  | 
Cc1cc(C(C)Nc2ccccc2C(=O)O)c2nc(-c3ccc(CN4CCN(C(=O)C5CC5)CC4)c(F)c3)cc(=O)n2c1 (single isomer, unassigned) [Compound 420] | 100 to 500 nM | A (A denotes >20-fold) |  | 
Cc1cc(C(C)Nc2ccccc2C(=O)O)c2nc(-c3ccc(CN4CCN(C(=O)C5CC5)CC4)c(F)c3)cc(=O)n2c1 (single isomer, unassigned) [Compound 421] | > 2000 nM | C (C denotes ≤5-fold) |  | 
Cc1cc([C@@H](C)Nc2ccccc2C(=O)O)c2nc(N3CC[Si](C)(C)CC3)cc(=O)n2c1 (single isomer, unassigned) [Compound 431] | < 100 nM | A (A denotes >20-fold) |  | 
Cc1cc(C(C)Nc2ccccc2C(N)=O)c2nc(-c3ccncc3)cc(=O)n2c1 (single isomer, unassigned) [Compound 439] | > 2000 nM | C (C denotes ≤5-fold) |  | 
Cc1cc([C@H](C)Nc2ccccc2C(N)=O)c2nc(-c3ccncc3)cc(=O)n2c1 (single isomer, unassigned) [Compound 440] | 500 to 2000 nM | B (B denotes 20-fold≥value>5-fold) |  | 
Cc1cc([C@@H](C)Nc2ccccc2C(=O)O)c2nc(N3C[C@H](C)C[C@H](C)C3)cc(=O)n2c1 (single isomer, unassigned) [Compound 512] | < 100 nM | A (A denotes >20-fold) |  | 
Cc1cc(C(C)Nc2ccccc2C(=O)O)c2nc(-c3ccc4c(c3)c(N)nn4C)cc(=O)n2c1 (single isomer, unassigned) [Compound 535] | > 2000 nM | C (C denotes ≤5-fold) |  | 
Cc1cc([C@H](C)Nc2ccccc2C(=O)O)c2nc(-c3ccc4c(c3)c(N)nn4C)cc(=O)n2c1 (single isomer, unassigned) [Compound 536] | < 100 nM | A (A denotes >20-fold) |  | 
Cc1cc([C@@H](C)Nc2ccccc2C(=O)O)c2nc(N3C[C@@H]4CC(F)(F)C[C@@H]4C3)cc(=O)n2c1 (single isomer, unassigned) [Compound 582] | > 2000 nM | C (C denotes ≤5-fold) |  | 
Cc1cc([C@H](C)Nc2ccccc2C(=O)O)c2nc(N3C[C@@H]4CC(F)(F)C[C@@H]4C3)cc(=O)n2c1 (single isomer, unassigned) [Compound 583] | < 100 nM | A (A denotes >20-fold) |  | 
Cc1cc([C@@H](C)Nc2ccccc2C(=O)O)c2nc(-c3ccc4sc(=O)[nH]c4c3)cc(=O)n2c1 (single isomer, unassigned) [Compound 593] | < 100 nM | A (A denotes >20-fold) |  | 
Cc1cc([C@H](C)Nc2ccccc2S(N)(=O)=O)c2nc(N3Cc4ccccc4C3)cc(=O)n2c1 (single isomer, unassigned) [Compound 606] | > 2000 nM | C (C denotes ≤5-fold) |  | 
Cc1cc([C@@H](C)Nc2ccccc2C(N)=O)c2nc(N3Cc4ccccc4C3)cc(=O)n2c1 (single isomer, unassigned) [Compound 620] | < 100 nM | A (A denotes >20-fold) |  | 
Cc1cc([C@@H](C)Nc2ccccc2C(=O)O)c2nc(C3Cc4ccccc4[C@@H]3C)cc(=O)n2c1 (single isomer, unassigned) [Compound 652] |  |  | A (A denotes >20-fold) | 
Cc1cc([C@@H](C)Nc2ccccc2C(=O)O)c2nc(N3C[C@@H](C)C(F)(F)[C@@H](C)C3)cc(=O)n2c1 (single isomer, unassigned) [Compound 711] |  |  | A (A denotes >20-fold) | < 100 nM
Cc1cc([C@@H](C)Nc2ccccc2S(N)(=O)=O)c2nc(N3C[C@@H](C)O[C@@H](C)C3)cc(=O)n2c1 (single isomer, unassigned) [Compound 730] |  |  | A (A denotes >20-fold) | < 100 nM
Cc1cc([C@@H](C)Nc2ccccc2C(=O)O)c2nc(-c3ccc4c(c3)c(C)nn4C)cc(=O)n2c1 (single isomer, unassigned) [Compound 739] |  |  | C (C denotes ≤5-fold) | > 2000 nM
Cc1cc([C@H](C)Nc2ccccc2-c2ccnnc2)c2nc(N3Cc4ccccc4C3)c(C)c(=O)n2c1 (single isomer, unassigned) [Compound 848] |  |  | A (A denotes >20-fold) | < 100 nM

Continued, values first:

IC50 [1] | T47D pAKT S473 HTRF IC50 (H1047R): T47D (H1047R) selectivity over SKBR3 (WT) [2] | T47D pAKT S473 HTRF IC50 (H1047R): T47D (H1047R) selectivity over SKBR3 (WT) [3] | IC50 (EGF stimulation) | Structure (SMILES)
> 2000 nM | C (C denotes ≤5-fold) |  |  | Cc1cc([C@@H](C)Nc2ccccc2)c2nc(-c3cc(C)c4oc(=O)[nH]c4c3)cc(=O)n2c1 (single isomer, unassigned) [Compound 29]
< 100 nM | A (A denotes >20-fold) |  |  | Cc1cc(C(C)Nc2ccccc2C(=O)O)c2nc(-c3ccncc3)cc(=O)n2c1 (single isomer, unassigned) [Compound 269]
< 100 nM | A (A denotes >20-fold) |  |  | Cc1cc([C@@H](C)Nc2ccccc2C(=O)O)c2nc(-c3ccc(F)cc3)cc(=O)n2c1 (single isomer, unassigned) [Compound 424]
 |  |  | < 100 nM | Cc1cc([C@@H](C)Nc2ccccc2C(=O)O)c2nc(N3Cc4ccccc4[C@@H]3C)cc(=O)n2c1 (single isomer, unassigned) [Compound 652]
 |  | A (A denotes >20-fold) | < 100 nM | Cc1cc([C@@H](C)Nc2ccccc2C(=O)O)c2nc(-c3cnc4c(c3)c(C)nn4C)cc(=O)n2c1 (single isomer, unassigned) [Compound 696]
 |  | A (A denotes >20-fold) | < 100 nM | Cc1cc([C@H](C)Nc2ccccc2C(=O)O)c2nc(-c3ccc4c(c3)c(C)nn4C)cc(=O)n2c1 (single isomer, unassigned) [Compound 740]
 |  | A (A denotes >20-fold) | < 100 nM | Cc1cc([C@@H](C)Nc2ccccc2C(=O)O)c2nc(-c3cnc4c(c3)c(C)c(C)n4C)c(C)c(=O)n2c1 (single isomer, unassigned) [Compound 804]
 |  | A (A denotes >20-fold) | < 100 nM | Cc1cc([C@@H](C)Nc2ccccc2S(N)(=O)=O)c2nc(N3Cc4ccccc4C3)c(C)c(=O)n2c1 (single isomer, unassigned) [Compound 856]
